Data as given in US4889634A, “Dialysate solution containing hydroxypropyl-beta-cyclodextrin and method of using same” (priority 1988, dated 1989).

Tested on: rats [Crl:CD(SD) BR strain]
Experiment: 14-day intravenous toxicity study in rats
Assay type: in vivo, rat
Details: for Number of deaths: 200 mg/kg i.v. every second day
Procedure: As part of the toxicological evaluation of HPBCD, control groups of animals were dosed with HPBCD alone.
Two groups (5/sex/group) of rats [Crl:CD(SD) BR strain] were used for this study. Control rats were given 200 mg of salt per kilogram of body weight intravenously administered in a saline control solution comprising 20% salt by weight in water. The saline control was administered every second day for 14 days (i.e. seven injections). The treated rats were given 200 mg of HPBCD per kilogram of body weight intravenously administered (200 mg/kg i.v. HPBCD) via a HPBCD solution containing 20% HPBCD by weight in water on the same injection schedule. […] At the end of the study the animals were necropsied, gross pathology was observed, histopathological samples were prepared and blood was drawn for clinical laboratory measurements.

[1] = female rats, 200 mg/kg i.v., 14 days
[2] = male rats, 200 mg/kg i.v., 14 days

Q: Which results are given for hydroxypropyl-beta-cyclodextrin [HPBCD]?
A: Albumin/Globulin (Ratio) [1]: 0.9 ± 0.06; Triglycerides [1]: 35.0 ± 12.00 mg/dL; White blood cells [1]: 7.4 ± 2.56 × 10^3 /mm^3; Number of observations (antemortem) (female, 200 mg/kg i.v.): 0/5; Number of deaths (female, 14 days): 0/5; Body weight gain (female, week 1, 200 mg/kg i.v.): 16.0 ± 5.00 Grams; Food intake (female, week 1, 200 mg/kg i.v.): 107.9 ± 10.59 Grams; Body weight gain (female, week 2, 200 mg/kg i.v.): 18.0 ± 4.21 Grams; Food intake (female, week 2, 200 mg/kg i.v.): 112.1 ± 12.47 Grams; Adrenals weight to total body weight ratio (females): 0.0328 Weight Percent of Total Body W; Kidney weight to total body weight ratio (females): 0.9937 Weight Percent of Total Body W; Body weight gains vs saline control (in words): No difference; Food intake vs saline control (in words): No difference; Gross pathology (in words): No changes in gross pathology attributable to HPBCD treatment were observed; Abumin/Globulin (Ratio) [2]: 0.9 ± 0.08; Alanine amino transferase [2]: 24.0 ± 6.70 IU/L; Albumin [2]: 3.0 ± 0.08 G/dL; Alkaline phosphatase [2]: 137.0 ± 26.20 IU/L; Aspartate amino transferase [2]: 124.0 ± 37.36 IU/L; Basophils [2]: 0.00 ± 0.00 × 10^3 /mm^3; Blood urea nitrogen [2]: 11.2 ± 0.87 mg/dL; Calcium [2]: 9.8 ± 0.31 mg/dL; Chlorine [2]: 106.0 ± 1.80 mmol/L; Cholesterol [2]: 33.0 ± 7.10 mg/dL; Creatinine [2]: 0.8 ± 0.04 mg/dL; Eosinophils [2]: 0.07 ± 0.05 × 10^3 /mm^3; Globulin [2]: 3.3 ± 0.20 G/dL; Glucose (blood) [2]: 94.1 ± 7.43 mg/dL; Hematocrit [2]: 48.6 ± 1.74%; Hemoglobin [2]: 14.6 ± 0.51 G/DL; Ionic phosphate [2]: 9.7 ± 0.34 mg/dL; Lymphocytes [2]: 7.13 ± 1.08 × 10^3 /mm^3; Mean corpuscle [2]: 64.0 ± 2.20 fL; Mean corpuscle hemoglobin [2]: 19.3 ± 0.60 pg; Mean corpuscle hemoglobin concentrative [2]: 30.0 ± 0.35%; Monocytes [2]: 0.08 ± 0.01 × 10^3 /mm^3; Normal blood cells [2]: 0 ± 0.0 /100 white blood cells; Platelet count [2]: 1020.0 ± 79.5 × 10^3 /mm^3; Potassium [2]: 4.7 ± 0.15 mmol/L; Red blood cell [2]: 7.55 ± 0.17 × 10^6 /mm^3; Segmented neutrophils [2]: 0.61 ± 0.44 × 10^3 /mm^3; Sodium [2]: 142 ± 1.5 mM; Total bilirubin [2]: 0.2 ± 0.04 mg/dL; Total proteins [2]: 6.3 ± 0.18 G/dL; Triglycerides [2]: 57.0 ± 17.10 mg/dL; White blood cells [2]: 7.9 ± 1.18 × 10^3 /mm^3; Number of deaths (male, 14 days): 0/5; Kidney weight to total body weight ratio (males): 0.9022 Weight Percent of Total Body W; Adrenals weight to total body weight ratio (rat, in vivo): 0.0212 Weight Percent of Total Body W; Clinical laboratory values vs controls (rat, in vivo): no observed clinically significant differences; Epididymes weight to total body weight ratio (rat, in vivo): 0.2635 Weight Percent of Total Body W; Organ to body ratios between groups (rat, in vivo): not different between the groups; Ovaries weight to total body weight ratio (rat, in vivo): 0.0574 Weight Percent of Total Body W; Prostate weight to total body weight ratio (rat, in vivo): 0.2091 Weight Percent of Total Body W; Testes weight to total body weight ratio (rat, in vivo): 1.0209 Weight Percent of Total Body W; Uterus weight to total body weight ratio (rat, in vivo): 0.3278 Weight Percent of Total Body W; Alanine amino transferase (rat, in vivo, iv, 200 mg/kg): 21.0 ± 2.30 IU/L; Albumin (rat, in vivo, iv, 200 mg/kg): 3.1 ± 0.08 G/dL; Alkaline phosphatase (rat, in vivo, iv, 200 mg/kg): 109.0 ± 16.20 IU/L; Aspartate amino transferase (rat, in vivo, iv, 200 mg/kg): 102.0 ± 162.00 IU/L; Basophils (rat, in vivo, iv, 200 mg/kg): 0.00 ± 0.00 × 10^3 /mm^3; Blood urea nitrogen (rat, in vivo, iv, 200 mg/kg): 13.2 ± 2.52 mg/dL; Calcium (rat, in vivo, iv, 200 mg/kg): 10.1 ± 0.82 mg/dL; Chlorine (rat, in vivo, iv, 200 mg/kg): 107.0 ± 2.60; Cholesterol (rat, in vivo, iv, 200 mg/kg): 52.0 ± 18.60 mg/dL; Creatinine (rat, in vivo, iv, 200 mg/kg): 0.8 ± 0.11 mg/dL; Eosinophils (rat, in vivo, iv, 200 mg/kg): 0.06 ± 0.04 × 10^3 /mm^3; Globulin (rat, in vivo, iv, 200 mg/kg): 3.4 ± 0.26 G/dL; Glucose (blood) (rat, in vivo, iv, 200 mg/kg): 100.0 ± 14.07 mg/dL; Hematocrit (rat, in vivo, iv, 200 mg/kg): 47.2 ± 5.59%
